Laboratory results: patent US20260327198A1, “2-DIARYLMETHYL-4-AMINOTETRAHYDROPYRAN SULFONIMIDAMIDES AS ANTICANCER, ANTIINFLAMMATORY, ANTIFIBROTIC AND NEUROPROTECTIVE AGENTS” (Atux Iskay LLC, priority 2022, published 2026)

Columns and labels:
[1] = test system: D425 medulloblastoma cells; assay: D425 medulloblastoma cell viability / growth inhibition (CellTiter-Glo); type: cell-based; details: n = 3, 0.1% DMSO
Procedure: D425 medulloblastoma cells were purchased from SigmaAldrich. D425 meduloblastoma cells were cultured in improved Dulbecco's modified Eagle's medium (DMEM) Richter's modification supplemented with 20% fetal bovine serum and 1% Penicillin-streptomycin. Incubation was performed at 37° C. and 5% CO2.
D425 cells were seeded at 3000-3500 cells/90 μL growth medium per well on 96-well tissue culture plates. Cells were incubated overnight to allow them to recover. Next day cells were treated with tested compounds and incubated for 48 hours.
Cell Proliferation assays in triplicate were performed at each concentration. Compounds test range was 1-30 μM (0, 5, 10, 15, 20, 25, and 30). The compounds were dissolved in DMSO. A series of dilutions were made in 1% DMSO in growth medium so that the final concentration of DMSO is 0.1% in all of treatments.
After treatment, cells were allowed to equilibrate at room temperature for one hour. Cell proliferation was measured by Luminescence quantification using Promega CellTiter-Glo Luminescent Cell Viability Assay. To perform the assay, 90 μL of Celltiter-Glo substrate was added to each well, plates were shake for 2 minutes and allowed to equilibrate for 10 minutes at room temperature. Luminescence intensity was measured using the Spectramax i3x plate reader.
The Luminescence intensity data were analyzed using the computer software Graphpad Prism. In the absence of the compound, the luminescence intensity (Lt) in each data set was defined as 100% cell viability. The percent cell in the presence of each compound was calculated according to the following equation: % Cell=L/Lt, were L=the luminescence intensity in the presence of the compound.
The values of % cell versus a series of compound concentrations (0, 5, 10, 15, 20, 25, and 30 μM) were then plotted using Nonlinear regression analysis of Sigmoidal dose-response curve. IC50 value was determined by the concentration causing a half-maximal percent activity.

[2] = test system: phosphatase activity in ApoE transfected A172 glioblastoma cells; assay: Cellular in vitro phosphatase activation assay (Malachite Green, ApoE cDNA transfected A172 cells); type: cell-based; details: Homo sapiens, A 172, A172 glioblastoma cells transfected with ApoE cDNA, 24 hours, n = 3, read-out: % increase from ApoE transfected cell at 5 μM test compound concentration
Procedure: Cellular in vitro phosphatase activation assay was performed using the method of Theendakara et al, Molecular and Cellular Neuroscience, 83 (2017), pages 83-91 which is described below:
A172 glioblastoma cells were cultured in Dulbecco's modified Eagle's medium (DMEM) supplemented with 10% fetal bovine serum and 1% Penicillin-streptomycin. Incubation was performed at 37° C. and 5% CO2.
A172 cells were seeded at 5×10^5 cells/2.5 ml growth medium (without antibiotics) per well on 6-well tissue culture plates. Cells were incubated overnight to allow them to recover and reattach. […]
After 24 hrs, cells were washed twice with imidazole buffer and lysed using NP-40 Lysis buffer. […] The amount of phosphate release in the assay was determined by measuring absorbance at 620 nm using the Spectramax i3x plate reader.
The absorbance intensity data were analyzed using the computer software Graphpad Prism. The phosphate concentration for each sample was determined from the standard curve using phosphate standard concentrations. In order to compare samples, the first set (column A) were there was no transfection performed and no compound added, was designated a baseline; the absorbance measurement in this column was set as 100% phosphatase activity.

[3] = test system: mouse models of allergic airway disease; details: small molecule activators of PP2A; cited from earlier work

Row | SMILES | IC50 ([1]; Medulloblastoma cell, 48 h) [µM] | IC50 ([1]; 48 hours) [µM] | development of inflammation, airway hyperreactivity in mouse models of allergic airway disease [3] | further results
1 | N=S(=O)(N[C@H]1CCOC(C2c3ccccc3CCc3ccccc32)C1)c1ccc(OC(F)(F)F)cc1 (single isomer, unassigned) [Example 3] | 8.3 | – | – | activation at 5 µM [2]: 22%
2 | N=S(=O)(N[C@H]1CCOC(C2c3ccccc3CCc3ccccc32)C1)c1ccc(OC(F)(F)F)cc1 (single isomer, unassigned) [Example 4] | – | 9.5 | – | –
3 | N=S(=O)(N[C@H]1CCO[C@@H](C(c2ccc(F)cc2)c2ccc(F)cc2)C1)c1ccc(OC(F)(F)F)cc1 (single isomer, unassigned) [Example 7-isomer1] | 14.3 | – | – | –
4 | N=S(=O)(N[C@H]1CCO[C@@H](C(c2ccc(F)cc2)c2ccc(F)cc2)C1)c1ccc(OC(F)(F)F)cc1 (single isomer, unassigned) [Example 7-isomer2] | – | 10.4 | – | –
5 | CCCCCCCOc1ccc(CCC(C)(N)CO)cc1 [AAL(S), 2-amino-4-(4-(heptyloxy)phenyl)-2-methylbutan-1-ol] | – | – | inhibited the development of inflammation, airway hyperreactivity | –
6 | CCCCCCCCc1ccc(CCC(N)(CO)CO)cc1 [fingolimod] | – | – | inhibited the development of inflammation, airway hyperreactivity | –
